How the values were obtained:
all cell lines but Saos2 = assay: Apo-ONE homogeneous caspase-3/7 assay (apoptosis), summary statement; assay type: cell-based; conditions: all cell lines but Saos2, 42 h
Description: HeLa human cervical carcinoma cell line, the human breast cancer cell line MCF7, the African green monkey kidney cell line BS-C-1 and the human colorectal carcinoma cell lines HCT116 and SW480 were maintained in Dulbecco's Modified Eagle's medium (DMEM, PAA, Pasching Austria). The colorectal cell line HT29 was cultured in McCoy's 5A medium (PAA, Pasching, Austria). The prostate carcinoma cells PC3 and the osteosarcoma cells Saos2 were cultured in RPMI medium (PAA, Pasching Austria). All media were supplemented with 10% fetal calf serum, L-glutamine, penicillin and streptomycin. All cell lines were maintained at 37° C. in a 5% CO2 humidified atmosphere.
Therefore we measured the caspase-3/7 activity in different cell lines with the Apo-ONE® homogeneous caspase-3/7 assay.
Caspase-3/7 activities were determined using the Apo-ONE® homogeneous caspase-3/7 assay (Promega, Mannheim Germany) according to the manufacturer's protocol. Briefly, cells were plated in quadruplicates in 384-well cell culture plate. After 24 hours cells were exposed for 42 hours to the compounds at different concentrations. Control cells were treated with 0.5% DMSO or staurosporine (STS). Subsequently cells were lysed with a lysis buffer containing the caspase-3/7 substrate Z-DEVD-R110 and were incubated at room temperature until further analysis. The fluorescence was detected with the TECAN Inifinite® M200 plate reader at excitation/emission wavelength 485/520 nm. The blank value was subtracted from each value and the relative caspase-3/7 activity was calculated compared to the DMSO treated cells.
These findings correlate with our results from the cell viability assays for these indoloquinolizine.

HeLa cells = assay: FACS analysis of the cell cycle (propidium iodide DNA content); assay type: cell-based, human; conditions: 1 μM nocodazole, 24 h after treatment
Description: HeLa human cervical carcinoma cell line, the human breast cancer cell line MCF7, and the human colorectal carcinoma cell line SW480 were maintained in Dulbecco's Modified Eagle's medium (DMEM, PAA, Pasching Austria). The colorectal cell line HT29 was cultured in McCoy's 5A medium (PAA, Pasching, Austria). DMEM medium was supplemented with 10% fetal calf serum, sodium pyruvate, non-essential amino acids, penicillin and streptomycin, McCoy's 5A medium was supplemented with 10% fetal calf serum, penicillin and streptomycin. All cell lines were cultured at 37° C. in a 5% CO2 humidified atmosphere. Further, fluorescent activated cell sorting (FACS) was used successfully to analyze the cell cycle and mitotic arrest under the influence of indoloquinolizines. HeLa cells were fixed and stained for FACS analysis 24 h after compound treatment. Cells were trypsinized and combined with any floating cells, pelleted, and resuspended in 1 ml PBS. Ice cold ethanol (70%) was added, and samples were incubated at −20° C. until analysis. After fixation the cells were pelleted, resuspended in 500 μl staining solution (50 μg/ml propidium iodide, 0.1 mg/ml RNase A, 0.05% Triton X-100) and incubated for 40 min at 37° C. 3 ml PBS were added; the cells were pelleted again and resuspended in 500 μl PBS. The DNA content was measured with a Becton Dickinson LSRII and analyzed with FlowJo 7.5 software. The cell cycle of compound treated HeLa cells was analyzed by fluorescence activated cell sorting (FIG. 1). […] A similar distribution is given in (−)-1-01 treated cells (FIGS. 1c and 1d); here 9% are in G1 and 38% in G2/M phase (25 μM) respectively; 8% in G1 and 40% in G2/M phase (50 μM). This means that the mitotic index is increased by more than two fold (from 0.16 to 0.38 respectively 0.40), indicating a mitotic arrest after compound treatment.

Row | melting point | Compound | also measured
1 | 209 °C | CCOC(=O)C1=CC(C(=O)c2ccccc2O)=CN2CCc3c([nH]c4ccccc34)C12C(=O)OCC (centres unmarked) | –
2 | 232 °C (dec.) | COC(=O)C1=CC(C(=O)c2cc(Cl)ccc2O)=CN2CCc3c([nH]c4ccccc34)C12C(=O)OC (centres unmarked) | –
3 | 220 °C (dec.) | COC(=O)C1=CC(C(=O)c2cc(Br)ccc2O)=CN2CCc3c([nH]c4ccccc34)C12C(=O)OC (centres unmarked) | –
4 | 197 °C | COC(=O)C1=CC(C(=O)c2cc(C)ccc2O)=CN2CCc3c([nH]c4ccccc34)C12C(=O)OC (centres unmarked) | –
5 | 238.2 °C (dec.) | COC(=O)C1=CC(C(=O)c2cc(Cl)cc(Cl)c2O)=CN2CCc3c([nH]c4ccccc34)C12C(=O)OC (centres unmarked) | –
6 | 131 °C | COC(=O)C1=CC(C(=O)c2cc(Br)cc(Br)c2O)=CN2CCc3c([nH]c4ccccc34)C12C(=O)OC (centres unmarked) | –
7 | 261 °C (dec.) | COC(=O)C1=CC(C(=O)c2ccccc2OC)=CN2CCc3c([nH]c4ccccc34)C12C(=O)OC (centres unmarked) | –
8 | 180 °C (dec.) | COC(=O)C1=CC(C(=O)c2ccccc2O)=CN2CCc3c([nH]c4ccc(O)cc34)C12C(=O)OC (centres unmarked) | –
9 | 175 °C | COC(=O)C1=CC(C(=O)c2ccccc2O)=CN2CCc3c([nH]c4ccc(C)cc34)C12C(=O)OC (centres unmarked) | –
10 | 182 °C | COC(=O)C1=CC(C(=O)c2ccccc2O)=CN2CCc3c([nH]c4ccc(Br)cc34)C12C(=O)OC (centres unmarked) | –
11 | 237 °C (dec.) | COC(=O)C1=CC(C(=O)c2c(O)cccc2OC)=CN2CCc3c([nH]c4ccccc34)C12C(=O)OC (centres unmarked) | –
12 | – | COC(=O)C1=CC(C(=O)c2ccccc2O)=CN2CCc3c([nH]c4ccccc34)C12C(=O)OC (single isomer, unassigned; (+)) [(+)-1-01, Dimethyl-3-(2-hydroxybenzoyl)-6,7,12,12b-tetrahydroindolo[2,3a]quinolizine-1,12b-dicarboxylate] | impact on the apoptosis (all cell lines but Saos2): did not have any impact on the apoptosis
13 | – | COC(=O)C1=CC(C(=O)c2ccccc2O)=CN2CCc3c([nH]c4ccc(OC)cc34)C12C(=O)OC (single isomer, unassigned; (+)) [(+)-1-04, Dimethyl-3-(2-hydroxybenzoyl)-9-methoxy-6,7,12,12b-tetrahydro-indolo[2,3-a]quinolizine-1,12b-dicarboxylate] | impact on the apoptosis (all cell lines but Saos2): did not have any impact on the apoptosis
14 | 208 °C | CCOC(=O)C1=CC(C(=O)c2cc(C)ccc2O)=CN2CCc3c([nH]c4ccccc34)C12C(=O)OCC (centres unmarked) [Compound 1-03, Diethyl-3-(2-hydroxy-5-methylbenzoyl)-6,7,12,12b-tetrahydroindolo-[2,3-a]quinolizine-1,12b-dicarboxylate] | –
15 | 197 °C (dec.) | COC(=O)C1=CC(C(=O)c2cc(Br)ccc2O)=CN2CCc3c([nH]c4ccc(OC)cc34)C12C(=O)OC (centres unmarked) [Compound 1-05, Dimethyl-3-(5-bromo-2-hydroxybenzoyl)-9-methoxy-6,7,12,12b-tetrahydro-indolo[2,3-a]quinolizine-1,12b-dicarboxylate] | –
16 | 212 °C | CCOC(=O)C1=CC(C(=O)c2ccccc2O)=CN2CCc3c([nH]c4ccc(OC)cc34)C12C(=O)OCC (centres unmarked) [Compound 1-13, Diethyl-3-(2-hydroxybenzoyl)-9-methoxy-6,7,12,12b-tetrahydro-indolo[2,3-a]quinolizine-1,12b-dicarboxylate] | –
17 | 215 °C | CCOC(=O)C1=CC(C(=O)c2cc(Br)ccc2O)=CN2CCc3c([nH]c4ccccc34)C12C(=O)OCC (centres unmarked) [Compound 1-14, Diethyl-3-(5-bromo-2-hydroxybenzoyl)-6,7,12,12b-tetrahydro-indolo[2,3-a]quinolizine-1,12b-dicarboxylate] | –
18 | 228 °C | CCOC(=O)C1=CC(C(=O)c2cc(C)ccc2O)=CN2CCc3c([nH]c4ccc(OC)cc34)C12C(=O)OCC (centres unmarked) [Compound 1-16, Diethyl-3-(2-hydroxy-5-methylbenzoyl)-9-methoxy-6,7,12,12b-tetrahydroindolo[2,3-a]quinolizine-1,12b-dicarboxylate] | –
19 | 196 °C | CCOC(=O)C1=CC(C(=O)c2cc(Cl)c(C)cc2O)=CN2CCc3c([nH]c4ccccc34)C12C(=O)OCC (centres unmarked) [Compound 1-18, Diethyl-3-(5-chloro-2-hydroxy-4-methylbenzoyl)-6,7,12,12b-tetrahydroindolo[2,3-a]quinolizine-1,12b-dicarboxylate] | –
20 | 216 °C | CCOC(=O)C1=CC(C(=O)c2cc(Cl)ccc2O)=CN2CCc3c([nH]c4ccccc34)C12C(=O)OCC (centres unmarked) [Compound 1-19, Diethyl-3-(5-chloro-2-hydroxybenzoyl)-6,7,12,12b-tetrahydro-indolo[2,3-a]quinolizine-1,12b-dicarboxylate] | –
21 | 230 °C | CCOC(=O)C1=CC(C(=O)c2cc(Cl)ccc2O)=CN2CCc3c([nH]c4ccc(OC)cc34)C12C(=O)OCC (centres unmarked) [Compound 1-20, Diethyl-3-(5-chloro-2-hydroxybenzoyl)-9-methoxy-6,7,12,12b-tetrahydroindolo[2,3-a]quinolizine-1,12b-dicarboxylate] | –
22 | 225 °C | CCOC(=O)C1=CC(C(=O)c2cc(Br)ccc2O)=CN2CCc3c([nH]c4ccc(OC)cc34)C12C(=O)OCC (centres unmarked) [Compound 1-22, Diethyl-3-(5-bromo-2-hydroxybenzoyl)-9-methoxy-6,7,12,12b-tetrahydroindolo[2,3-a]quinolizine-1,12b-dicarboxylate] | –
23 | 216 °C | COC(=O)C1=CC(C(=O)c2ccc(OCc3ccccc3)c(C)c2O)=CN2CCc3c([nH]c4ccccc34)C12C(=O)OC (centres unmarked) [Compound 1-23, Dimethyl 3-(4-(benzyloxy)-2-hydroxy-3-methylbenzoyl)-6,7,12,12b-tetrahydroindolo[2,3-a]quinolizine-1,12b-dicarboxylate] | –
24 | 244 °C (dec.) | COC(=O)C1=CC(C(=O)c2ccccc2O)=CN2[C@H](C(=O)OC)Cc3c([nH]c4ccccc34)C12C(=O)OC (stereo partly drawn) [Compound 1-28, (6S)-trimethyl 3-(2-hydroxybenzoyl)-6,7,12,12b-tetrahydroindolo[2,3-a]quinolizine-1,6,12b-tricarboxylate] | –
25 | 237 °C (dec.) | CC(C)(C)OC(=O)C1=CC(C(=O)c2ccccc2O)=CN2CCc3c([nH]c4ccccc34)C12C(=O)OC(C)(C)C (centres unmarked) [Compound 1-54, di-tert-butyl 3-(2-hydroxybenzoyl)-6,7,12,12b-tetrahydroindolo[2,3-a]quinolizine-1,12b-dicarboxylate] | –
26 | – | COC(=O)Nc1nc2ccc(C(=O)c3cccs3)cc2[nH]1 [nocodazole, reference compound] | cells in G1 phase (HeLa cells): 4%; cells in G2/M phase (HeLa cells): 40%

Row | Compound | melting point | also measured
27 | COC(=O)C1=CC(C(=O)c2ccccc2O)=CN2CCc3c([nH]c4ccccc34)C12C(=O)OC (centres unmarked) | 258 °C (dec.) | –
28 | COC(=O)C1=CC(C(=O)c2ccccc2O)=CN2CCc3c([nH]c4ccc(OC)cc34)C12C(=O)OC (centres unmarked) | 163 °C (dec.) | –

Source: patent US20120316192A1, “SUBSTITUTED INDOLO [2,3-A] QUINOLIZINES” (priority 2011, published 2012)
